Activity calls are given as the source filed them. No cut-off for these calls is given here.
Legend:
Mus musculus [1] = assay: Antidiabetic activity in streptozotocin-induced diabetic ICR mouse assessed as change in body weight at 10 mg/kg, po administered QD measured 1 week after STZ challenge (reference value: 33.25 +/- 0.75 g); assay type: functional
Mus musculus [2] = assay: Antidiabetic activity in streptozotocin-induced diabetic ICR mouse assessed as change in blood glucose level at 10 mg/kg, po administered QD measured 9 weeks after STZ challenge (reference value: 529.90 +/- 49.17 mg/dl); assay type: functional
Mus musculus [3] = assay: Antidiabetic activity in streptozotocin-induced diabetic ICR mouse assessed as change in body weight at 20 mg/kg, po administered QD measured 1 week after STZ challenge (reference value: 33.25 +/- 0.75 g); assay type: functional
Mus musculus [4] = assay: Antidiabetic activity in streptozotocin-induced diabetic ICR mouse assessed as change in blood glucose level at 20 mg/kg, po administered QD measured 9 weeks after STZ challenge (reference value: 529.90 +/- 49.17 mg/dl); assay type: functional
Mus musculus [5] = assay: Antidiabetic activity in streptozotocin-induced diabetic ICR mouse assessed as change in body weight at 20 mg/kg, po administered QD measured 9 weeks after STZ challenge (reference value: 34.15 +/- 1.16 g); assay type: functional
Mus musculus [6] = assay: Antidiabetic activity in streptozotocin-induced diabetic ICR mouse assessed as change in blood glucose level at 20 mg/kg, po administered QD measured 1 week after STZ challenge (reference value: 516.33 +/- 46.73 mg/dl); assay type: functional
[7] = Lipophilicity, log P of the compound; assay type: physicochemical; settings: octanol/water
Mus musculus [8] = assay: Antidiabetic activity in streptozotocin-induced diabetic ICR mouse assessed as change in body weight at 10 mg/kg, po administered QD measured 9 weeks after STZ challenge (reference value: 34.15 +/- 1.16 g); assay type: functional
Mus musculus [9] = assay: Antidiabetic activity in streptozotocin-induced diabetic ICR mouse assessed as change in blood glucose level at 10 mg/kg, po administered QD measured 1 week after STZ challenge (reference value: 516.33 +/- 46.73 mg/dl); assay type: functional
Mus musculus [10] = assay: Protective activity against hearing loss in streptozotocin-induced diabetic ICR mouse using 4 KHz tone bursts at 10 mg/kg, po administered QD measured after 8 weeks by auditory brainstem response test; assay type: functional, organism-based; parameters: dose 10 mg/kg
Mus musculus [11] = assay: Protective activity against hearing loss in streptozotocin-induced diabetic ICR mouse assessed as increase in signal intensity-to-noise ratio at 10 mg/kg, po administered QD measured after 8 weeks by transient evoked otoacoustic emission test; assay type: functional, organism-based; parameters: dose 10 mg/kg
Mus musculus [12] = assay: Protective activity against hearing loss in streptozotocin-induced diabetic ICR mouse using 4 KHz tone bursts at 20 mg/kg, po administered QD measured after 8 weeks by auditory brainstem response test; assay type: functional, organism-based; parameters: dose 20 mg/kg
Mus musculus [13] = assay: Protective activity against hearing loss in streptozotocin-induced diabetic ICR mouse assessed as increase in negative A peak-positive A peak amplitude at 20 mg/kg, po administered QD measured after 8 weeks by auditory middle latency response test; assay type: functional, organism-based; parameters: dose 20 mg/kg
Mus musculus [14] = assay: Protective activity against hearing loss in streptozotocin-induced diabetic ICR mouse assessed as decrease in positive A peak latency at 20 mg/kg, po administered QD measured after 8 weeks by auditory middle latency response test; assay type: functional, organism-based; parameters: dose 20 mg/kg
Mus musculus [15] = assay: Protective activity against hearing loss in streptozotocin-induced diabetic ICR mouse assessed as increase in negative A peak-positive A peak amplitude at 10 mg/kg, po administered QD measured after 8 weeks by auditory middle latency response test; assay type: functional, organism-based; parameters: dose 10 mg/kg
Mus musculus [16] = assay: Protective activity against hearing loss in streptozotocin-induced diabetic ICR mouse assessed as increase in signal intensity-to-noise ratio at 20 mg/kg, po administered QD measured after 8 weeks by transient evoked otoacoustic emission test; assay type: functional, organism-based; parameters: dose 20 mg/kg
Mus musculus [17] = assay: Protective activity against hearing loss in streptozotocin-induced diabetic ICR mouse using 8 KHz tone bursts at 20 mg/kg, po administered QD measured after 8 weeks by auditory brainstem response test; assay type: functional, organism-based; parameters: dose 20 mg/kg
Mus musculus [18] = assay: Protective activity against hearing loss in streptozotocin-induced diabetic ICR mouse assessed as decrease in positive A peak latency at 10 mg/kg, po administered QD measured after 8 weeks by auditory middle latency response test; assay type: functional, organism-based; parameters: dose 10 mg/kg
Mus musculus [19] = assay: Protective activity against hearing loss in streptozotocin-induced diabetic ICR mouse using 8 KHz tone bursts at 10 mg/kg, po administered QD measured after 8 weeks by auditory brainstem response test; assay type: functional, organism-based; parameters: dose 10 mg/kg
[20] = Oral bioavailability in rat; assay type: ADME, organism-based; settings: in vivo

C[C@@H]1CC[C@@]2(OC1)O[C@H]1C[C@H]3[C@@H]4CC=C5C[C@@H](O)CC[C@]5(C)[C@H]4CC[C@]3(C)[C@H]1[C@@H]2C [DISOGENIN]
Activity (Mus musculus [1]): 32.83 g
Activity (Mus musculus [2]): >=600 mg/dl
Activity (Mus musculus [3]): 33.67 g
Activity (Mus musculus [4]): 598 mg/dL
Activity (Mus musculus [5]): 38.67 g
Activity (Mus musculus [6]): 574.17 mg/dL
logP [7]: 5.7
Activity (Mus musculus [8]): 38.33 g
Activity (Mus musculus [9]): >=600 mg/dl

COCCOCCOCCOCCO[C@H]1CC[C@@]2(C)C(=CC[C@H]3[C@@H]4C[C@@H]5O[C@]6(CC[C@@H](C)CO6)[C@@H](C)[C@@H]5[C@@]4(C)CC[C@@H]32)C1
Activity (Mus musculus [1]): 30.5 g
Activity (Mus musculus [10]): Active
Activity (Mus musculus [2]): 565.56 mg/dL
Activity (Mus musculus [3]): 32.55 g
Activity (Mus musculus [4]): 501.6 mg/dL
Activity (Mus musculus [5]): 37.6 g
Activity (Mus musculus [11]): Active
Activity (Mus musculus [12]): Active
Activity (Mus musculus [13]): Active
Activity (Mus musculus [14]): Active
Activity (Mus musculus [15]): Active
Activity (Mus musculus [16]): Active
Activity (Mus musculus [6]): 582.8 mg/dL
Activity (Mus musculus [17]): Active
Activity (Mus musculus [8]): 33.72 g
Activity (Mus musculus [9]): 522.18 mg/dL
Activity (Mus musculus [18]): Active
Activity (Mus musculus [19]): Active

C[C@@H]1CC[C@@]2(OC1)O[C@H]1C[C@H]3[C@@H]4CC=C5C[C@@H](O[C@@H]6O[C@H](CO)[C@@H](O)[C@H](O)[C@H]6O)CC[C@]5(C)[C@H]4CC[C@]3(C)[C@H]1[C@@H]2C [DISOGLUSIDE]
Activity (Mus musculus [1]): 33.17 g
Activity (Mus musculus [2]): >=600 mg/dl
Activity (Mus musculus [3]): 31.58 g
Activity (Mus musculus [4]): 592.33 mg/dL
Activity (Mus musculus [5]): 34.92 g
Activity (Mus musculus [12]): Active
Activity (Mus musculus [13]): Active
Activity (Mus musculus [14]): Active
Activity (Mus musculus [6]): 571.75 mg/dL
Activity (Mus musculus [17]): Active
Activity (Mus musculus [8]): 33.39 g
Activity (Mus musculus [9]): 583.55 mg/dL

C[C@@H]1CC[C@@]2(OC1)O[C@H]1C[C@H]3[C@@H]4CC=C5C[C@@H](O[C@@H]6O[C@H](CO)[C@@H](O[C@@H]7O[C@@H](C)[C@H](O)[C@@H](O)[C@H]7O)[C@H](O)[C@H]6O[C@@H]6O[C@@H](C)[C@H](O)[C@@H](O)[C@H]6O)CC[C@]5(C)[C@H]4CC[C@]3(C)[C@H]1[C@@H]2C [DIOSCIN]
bioavailability [20]: 0.2%
